{
  "source": "patent US9487506B2",
  "about": "“Mineralocorticoid receptor antagonists” (Merck Sharp & Dohme Corp., priority 2011, dated 2016)",
  "data": [
    {"target": "T1, full-length human Mineralocorticoid Receptor (MR) (Homo sapiens, UniProt P08235)", "T1 construct": "host or cells: PathHunter CHO-K1 cells", "T1 sequence (P08235 1-984)": "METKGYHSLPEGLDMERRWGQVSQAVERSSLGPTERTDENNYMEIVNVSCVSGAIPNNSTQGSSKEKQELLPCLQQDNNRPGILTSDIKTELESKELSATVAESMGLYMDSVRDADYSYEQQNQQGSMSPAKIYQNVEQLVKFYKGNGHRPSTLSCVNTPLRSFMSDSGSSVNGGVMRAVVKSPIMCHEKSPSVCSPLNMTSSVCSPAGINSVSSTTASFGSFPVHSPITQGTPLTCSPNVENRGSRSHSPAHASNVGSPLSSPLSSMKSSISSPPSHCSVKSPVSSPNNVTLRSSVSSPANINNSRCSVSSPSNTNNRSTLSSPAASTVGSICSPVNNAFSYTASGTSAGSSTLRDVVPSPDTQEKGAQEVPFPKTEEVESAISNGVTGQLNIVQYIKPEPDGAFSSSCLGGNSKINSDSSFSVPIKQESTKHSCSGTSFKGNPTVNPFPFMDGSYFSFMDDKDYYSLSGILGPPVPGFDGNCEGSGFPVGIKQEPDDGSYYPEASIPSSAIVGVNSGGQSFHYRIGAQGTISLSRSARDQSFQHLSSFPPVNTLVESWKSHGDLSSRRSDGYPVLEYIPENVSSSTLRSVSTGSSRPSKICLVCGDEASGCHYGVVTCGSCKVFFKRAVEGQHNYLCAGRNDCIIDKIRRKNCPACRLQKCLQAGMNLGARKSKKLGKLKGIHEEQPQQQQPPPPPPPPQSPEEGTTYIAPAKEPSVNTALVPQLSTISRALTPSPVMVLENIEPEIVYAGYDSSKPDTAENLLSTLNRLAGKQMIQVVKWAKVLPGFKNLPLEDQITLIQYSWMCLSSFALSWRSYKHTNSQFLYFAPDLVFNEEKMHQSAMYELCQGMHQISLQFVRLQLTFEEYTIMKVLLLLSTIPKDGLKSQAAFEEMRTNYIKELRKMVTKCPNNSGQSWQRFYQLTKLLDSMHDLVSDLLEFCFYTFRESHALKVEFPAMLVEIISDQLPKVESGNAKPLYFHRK", "experiment": "human MR NH Pro assay (PathHunter Protein:Protein interaction assay), MR antagonist activity", "assay_type": "cell-based", "conditions": "PathHunter CHO-K1 cells overexpressing human MR; aldosterone 0.3 nM to about 1 nM; 6 hours at 37° C.; luminescence; read-out: IP (rating); IP is the inflection point for a given dose-response titration curve", "text": "The activity of the compounds of the present invention regarding mineralocorticoid receptor antagonism can be evaluated using the following assay.\nAssessment of MR Potency in HMR NH Pro Assay\nThe human MR NH Pro assay is a commercially available PathHunter™ Protein:Protein interaction assay (DiscoveRx; http://www.discoverx.com/nhrs/prod-nhrs.php) that measures the ability of compounds to antagonize full-length human Mineralocorticoid Receptor (MR) binding to a coactivator peptide. PathHunter™ CHO-K1 cells that overexpress human MR (Cat #93-0456C2, Lot No: 09B0913) were cultured in growth media (F12K w/Glutamine and phenol red (Gibco 11765-047) supplemented with 10% HI FBS (Gibco 16000); 0.25 mg/ml Hygromycin in PBS (Invitrogen 10687-010, 50 mg/ml); 100 I.U./mL and 100 μg/mL Pen/Strep (Gibco 15140-122); 0.6 mg/mL Geneticin (Gibco 10131-027).\nCompounds were assessed for MR antagonist activity by incubating the cells with a titrating dose of compound in F12K w/Glutamine and phenol red culture media (Invitrogen 11765-047) supplemented with 1% Charcoal/Dextran Treated FBS (Hyclone #SH30068.01) and aldosterone (0.3 nM to about 1 nM) for 6 hours at 37° C. Cells were then treated with DiscoveRx detection reagent for 1 hour at room temperature and read using an Envision luminescence plate reader. % activity was measured relative to cells treated with aldosterone alone and IC50 values were calculated using ADA software.\nStock solution was prepared at 10 μM in DMSO and stored at −20° C. for assay, dilute in assay media to 1.8 or 6 nM (6× of final concentration=about 0.3 nM to about 1.0 nM)\n5. Cell line: PathHunter CHO-K1 MR cells Cat #93-0456C2, Lot No: 09B0913, from operation liquid nitrogen stock.\n3. The cells concentration was adjusted to 4×10^5 cells/mL.\n4. Cells were (25 μL/well) added to the wells of a 384 well plate.\n5. The plate was then incubated at 37° C. over night in a humidified incubator with 5% CO2.\n6. Test compounds were titrated starting at 4.4 mM, 10-point titration in 1:3 dilution.\n7. Aldosterone was diluted in assay media to 1.8 nM or 6 nM from 10 μM stock (final concentration to be about 0.3 nM to about 1.0 nM)\n1. 10K exponentially growing cells/well (25 μL) were resuspended in assay media and plated into each well using the Multidrop (Thermo Electron) (use white wall, clear bottom assay plates (Costar #3570) and incubated overnight at 37° C., 5% CO2.\n2. 0.25 μL 120× test compound (final DMSO concentration should be <1%) was added to each well n=2, 10 point titrations starting at 36.7 μM final concentration.\n3. 5 μL of 6× agonist (final aldosterone concentration should be about 0.3 nM to about 1.0 nM) was added to all wells (using the PlateMate Plus; (ThermoFisher) (except those wells in columns 23 and 24)\n4. 5 μL of assay media was added to all wells in column 23 and 24.\n5. Cells were then incubated for 6 hrs at 37° C., 5% CO2.\n6. 15 μL 3× DiscoveRx detection reagent was then added to each well.\n7. Plates were incubated for 1 hour at room temperature in the dark.\n8. Plates were read on Envision (PerkinElmer) luminesence plate reader and analyzed using ADA.", "units": {"IC50": "nM"}, "values": [
      {"smiles": "N#CCCC(c1ccc(Cl)cc1F)c1nn(CC#N)c2ccccc12", "note": "(stereo not drawn) [Example 17E, 4-(4-chloro-2-fluorophenyl)-4-[1-(cyano-methyl)-1H-indazol-3-yl]-butanenitrile]", "IC50": "500 to 6000"},
      {"smiles": "COCCn1nc(C(CCC#N)c2ccc(Cl)cc2F)c2ccccc21", "note": "(stereo not drawn) [Example 17F, 4-(4-chloro-2-fluorophenyl)-4-[1-(2-methoxyethyl)-1H-indazol-3-yl]butanenitrile]", "IC50": "500 to 6000"},
      {"smiles": "CC(C)(C)OC(=O)Cn1nc(C(C)(C)c2ccc(Cl)cc2)c2ccccc21", "note": "[Example 18, tert-butyl {3-[1-(4-chlorophenyl)-1-methylethyl]-1H-indazol-1-yl}acetate]", "IC50": "500 to 6000"},
      {"smiles": "CCC(CC)(c1ccc(Cl)cc1)c1nn(CC(=O)OC)c2ccccc12", "note": "[Example 19, methyl {3-[1-(4-chlorophenyl)-1-ethylpropyl]-1H-indazol-1-yl}acetate]", "IC50": "100 to 500"},
      {"smiles": "COC(=O)Cn1nc(Cc2ccc(Cl)cc2)c2ccccc21", "note": "[Example 20, Methyl [3-(4-chlorobenzyl)-1H-indazol-1yl]acetate]", "IC50": "500 to 6000"},
      {"smiles": "Clc1ccc(Cc2nn(Cc3ccccc3)c3ccccc23)cc1", "note": "[Example 21, 3-(4-chlorobenzyl)-1-benzyl-1H-indazole]", "IC50": "500 to 6000"}
    ]}
  ]
}
